Assays:
[1] = tested on: K562 cells; assay: Cell proliferation analysis, K562; format: cell-based; settings: Homo sapiens, K562, 72 h; 3 days, CellTiter-Glo
Procedure: (§1) The inhibitory effect of the example compounds on Ba/F3 parental, Ba/F3 Bcr-Abl^T315I, K562, Ba/F3 KIF5B-RET, BaF3 FLT3-ITD cell activity was determined.
(§2) Materials and reagents: RPMI-1640 medium (GIBCO, Catalog No. A10491-01), fetal bovine serum (GIBCO, Catalog No. 10099141), antibiotics (Penicillin-Streptomycin), IL-3(PeproTech), promycin; cell lines: Ba/F3 parental, Ba/F3 Bcr-Abl^T315I, Ba/F3 KIF5B-RET, BaF3 FLT3-ITD, (purchased from American type culture collection, ATCC), K562 live cell detection kit CellTiter-Glo4(Promega, Catalog No. G7572), 96-well black wall transparent flat bottom cell culture plate (Corning, Catalog No. 3340).
(§3) Test method: 1. Preparation of cell plate: Ba/F3 parental, Ba/F3 Bcr-Abl^T315I K563, Ba/F3 KIFSB-RET, BaF3 FLT3-ITD cells were respectively seeded in 96-well plates, and 8 ng/ml IL-3 was added to the Ba/F3 cells, and the cell plates were placed in a carbon dioxide incubator and cultured overnight. 2. The test compounds were dissolved in DMSO, 9 compound concentrations were made with a 3.16-fold gradient dilution in triplicate. 3. Treatment of the cells with compounds: The compounds were transferred to the cell plate with a starting concentration of 10 μM. The cell plate was placed in a carbon dioxide incubator for 3 days. 4. Detection: CellTiter-Glo agent was added to the cell plate, and incubated at room temperature for 30 minutes to stabilize the luminous signal. PerkinElmer Envision multi-label analyzer was used for reading, wherein A represents IC50≤50 nM, B represents IC50 is 50-100 nM, C represents IC50 is 100-500 nM, D represents IC50 is 500-1000 nM, […].

[2] = tested on: Ba/F3 Bcr-Abl^T315I cells; assay: Cell proliferation analysis, Ba/F3 Bcr-Abl T315I; format: cell-based; settings: Mus musculus, BaF3, 72 h; 3 days, CellTiter-Glo; read-out: IC50 (nM) Ba/F3 BCR-ABL^T315
Procedure: as §1, §2, §3

[3] = molecular target: ABL^T315I (Homo sapiens (Human), UniProt P00519, T315I); assay: Biochemical kinase analysis, ABL T315I; settings: kinase inhibition assay
Procedure: (§4) Reagents and materials: ABL (ThermoFisher, Cat. No. PV3585), ABL^T315I(Thermo Fisher, Cat. No. PR7429B), Ret (Carna, Cat. No. 08-159-10 ug), RET^V804M, Active (Signalchem, Cat. No. R02-12GG), ATP (Sigma, Cat. No. A7699-1G), DMSO (Sigma, Cat. No. D2650), 96-well plate (Corning, Cat. No. 3365), 384-well plate (Greiner, Cat. No. 784076), buffer solution (Thermo Fisher, Cat. No. PR4876B).
(§5) Compound formulation: The test compounds were dissolved in DMSO to prepare a 20 mM stock solution. Before use, the compounds were diluted in DMSO to 0.1 mM, and diluted into 11 concentrations with a 3-fold gradient. When addition, dilutions of 4-fold final concentration were then made with buffer solution.
(§6) Kinase assay method: After preparing the buffer, the enzyme was mixed with pre-formulated and diluted compounds of different concentrations in duplicate for each concentration, and placed at room temperature for 30 minutes. The corresponding substrate and ATP were added thereto, and reacted at room temperature for 60 minutes (both a negative and a positive control were set). After the reaction, antibody was added for detection, Evnvision detection was carried out after 60 minutes incubation at room temperature, and data was collected. Data analysis and fitting were made according to XLfit5 software.

[4] = molecular target: RET^V804M (Homo sapiens (Human), UniProt P07949, V804M); assay: Biochemical kinase analysis, RET V804M; settings: kinase inhibition assay
Procedure: as §4, §5, §6

[5] = tested on: Ba/F3 BCR-ABL cells; assay: Cell proliferation analysis, Ba/F3 BCR-ABL; format: cell-based; settings: Mus musculus, BaF3, 72 h; 3 days, CellTiter-Glo
Procedure: [Worded in the source for another variant; this variant is reported under the same test.] as §1, §2, §3

[6] = molecular target: ABL (Homo sapiens (Human), UniProt P00519); assay: Biochemical kinase analysis, ABL; settings: kinase inhibition assay
Procedure: as §4, §5, §6

[7] = tested on: Ba/F3 parental cells; assay: Cell proliferation analysis, Ba/F3 parental; format: cell-based; settings: Mus musculus, BaF3, 72 h; 3 days, CellTiter-Glo, 8 ng/ml IL-3
Procedure: as §1, §2, §3

[8] = tested on: Ba/F3 KIF5B-RET cells; assay: Cell proliferation analysis, Ba/F3 KIF5B-RET; format: cell-based; settings: Mus musculus, BaF3, 72 h; 3 days, CellTiter-Glo
Procedure: as §1, §2, §3

[9] = molecular target: Ret (Homo sapiens (Human), UniProt P07949); assay: Biochemical kinase analysis, Ret; settings: kinase inhibition assay
Procedure: as §4, §5, §6

[10] = tested on: BaF3 FLT3-ITD cells; assay: Cell proliferation analysis, BaF3 FLT3-ITD; format: cell-based; settings: Ba/F3 FLT3-ITD, 72 h; 3 days, CellTiter-Glo
Procedure: as §1, §2, §3

Chain of Ret (P07949 29-1114): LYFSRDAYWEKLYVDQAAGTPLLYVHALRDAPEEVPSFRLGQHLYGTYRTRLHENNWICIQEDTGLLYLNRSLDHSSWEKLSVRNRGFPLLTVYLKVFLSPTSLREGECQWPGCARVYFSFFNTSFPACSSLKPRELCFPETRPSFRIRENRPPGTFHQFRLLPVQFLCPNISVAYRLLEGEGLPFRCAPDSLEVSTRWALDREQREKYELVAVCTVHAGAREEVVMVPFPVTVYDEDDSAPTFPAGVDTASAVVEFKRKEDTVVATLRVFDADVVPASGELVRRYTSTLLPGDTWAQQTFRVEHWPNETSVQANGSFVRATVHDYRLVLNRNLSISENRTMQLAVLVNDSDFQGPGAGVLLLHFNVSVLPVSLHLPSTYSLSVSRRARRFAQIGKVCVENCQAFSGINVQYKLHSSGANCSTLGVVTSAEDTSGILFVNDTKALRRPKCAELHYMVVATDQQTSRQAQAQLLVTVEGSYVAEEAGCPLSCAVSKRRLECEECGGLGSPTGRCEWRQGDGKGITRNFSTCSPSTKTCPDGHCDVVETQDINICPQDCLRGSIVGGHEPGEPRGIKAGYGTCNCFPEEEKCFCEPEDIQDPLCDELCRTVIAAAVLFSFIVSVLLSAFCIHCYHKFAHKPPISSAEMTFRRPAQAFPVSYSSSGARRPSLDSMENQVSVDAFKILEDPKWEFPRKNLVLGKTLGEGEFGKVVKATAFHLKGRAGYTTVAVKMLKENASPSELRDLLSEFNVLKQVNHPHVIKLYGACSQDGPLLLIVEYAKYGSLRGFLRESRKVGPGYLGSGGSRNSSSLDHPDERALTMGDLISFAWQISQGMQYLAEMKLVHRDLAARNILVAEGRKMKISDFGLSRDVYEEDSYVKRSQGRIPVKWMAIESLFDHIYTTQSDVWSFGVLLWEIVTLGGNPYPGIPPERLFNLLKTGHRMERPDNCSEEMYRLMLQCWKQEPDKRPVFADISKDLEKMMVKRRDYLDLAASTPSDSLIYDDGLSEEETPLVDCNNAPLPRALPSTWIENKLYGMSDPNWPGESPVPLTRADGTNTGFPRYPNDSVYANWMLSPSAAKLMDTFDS
Chain of RET^V804M (P07949 29-1114 V804M): as the sequence (P07949 29-1114) above, with V776M counted along it

Row | IC50 [1] | IC50 [2] | IC50 [3] | IC50 [4] | IC50 [5] | IC50 [6] | IC50 [8] | IC50 [9] | IC50 [10] | SMILES | IC50 [7]
1 | 0.28 nM | 15 nM | 9.05 nM | 12.2 nM | 5.63 nM | 3.91 nM | 10.1 nM | 0.88 nM | 17.7 nM | Cc1ccc(NC(=O)c2cccc(C(F)(F)F)c2)cc1C#Cc1cnc2c(Nc3cnn(C)c3)nccn12 [Example 1, N-(4-methyl-3-((8-((1-methyl-1H-pyrazol-4-yl)amino)imidazo[1,2-a]pyrazin-3-yl)ethynyl)phenyl)-3-(trifluoromethyl)benzamide] | 838 nM
2 | 0.5 nM | 17 nM | 10.1 nM | 2.69 nM | 5.1 nM | 6.65 nM | 6.02 nM | 0.32 nM | 10 nM | Cc1ccc(C(=O)Nc2cccc(C(F)(F)F)c2)cc1C#Cc1cnc2c(Nc3cnn(C)c3)nccn12 [Example 2, 4-methyl-3-((8-((1-methyl-1H-pyrazol-4-yl)amino)imidazo[1,2-a]pyrazin-3-yl)ethynyl)-N-(3-(trifluoromethyl)phenyl)benzamide] | 945 nM
3 | 0.16 nM | 101 nM | 27.5 nM | 23.1 nM | 4.75 nM | 1.89 nM | 26.4 nM | 0.25 nM | 67.7 nM | Cc1ccc(NC(=O)c2ccnc(C(F)(F)F)c2)cc1C#Cc1cnc2c(Nc3cnn(C)c3)nccn12 [Example 3, N-(4-methyl-3-((8-((1-methyl-1H-pyrazol-4-yl)amino)imidazo[1,2-a]pyrazin-3-yl)ethynyl)phenyl)-2-(trifluoromethyl)isonicotinamide] | 1340 nM
4 | 0.26 nM | 144 nM | 57.2 nM |  | 4.76 nM | 4.18 nM |  |  |  | Cc1ccc(NC(=O)c2cccc(C(F)(F)F)c2)cc1C#Cc1cnc2c(Nc3cnn(C)c3)ccnn12 [Example 11, N-(4-methyl-3-((8-((1-methyl-1H-pyrazol-4-yl)amino)imidazo[1,2-b]pyridazin-3-yl)ethynyl)phenyl)-3-(trifluoromethyl)benzamide] | 770 nM
5 | 1.3 nM | 162 nM | 67.2 nM |  | 15.6 nM | 9.88 nM |  |  |  | Cc1ccc(NC(=O)c2ccc(C)c(C(F)(F)F)c2)cc1C#Cc1cnc2c(Nc3cnn(C)c3)ccnn12 [Example 13, 4-methyl-N-(4-methyl-3-((8-((1-methyl-1H-pyrazol-4-yl)amino)imidazo[1,2-b]pyridazin-3-yl)ethynyl)phenyl)-3-(trifluoromethyl)benzamide] | 1220 nM
6 | 0.97 nM | 24.9 nM | 12.6 nM | 9.92 nM | 9.02 nM | 4.91 nM | 15.8 nM | 0.49 nM | 23 nM | Cc1ccc(C(=O)Nc2cccc(C(F)(F)F)c2)cc1C#Cc1cnc2c(Nc3cnn(C)c3)ccnn12 [Example 14, 4-methyl-3-((8-((1-methyl-1H-pyrazol-4-yl)amino)imidazo[1,2-b]pyridazin-3-yl)ethynyl)-N-(3-(trifluoromethyl)phenyl)benzamide] | 1550 nM
7 | 0.76 nM | 25.2 nM | 4.28 nM | 1.42 nM | 12.8 nM | 3.24 nM | 4.56 nM | 0.37 nM | 1.14 nM | Cc1ccc(C(=O)Nc2ccc(CN3CCN(C)CC3)c(C(F)(F)F)c2)cc1C#Cc1cnc2c(Nc3cnn(C)c3)ccnn12 [Example 15, 4-methyl-3-((8-((1-methyl-1H-pyrazol-4-yl)amino)imidazo[1,2-b]pyridazin-3-yl)ethynyl)-N-(4-((4-methylpiperazin-1-yl)methyl)-3-(trifluoromethyl)phenyl)benzamide] | 280 nM
